# Reference: paper PMC10026625 (RSC Advances, 2023)
# Tested on: SARS-CoV-2 ancestral Wuhan strain (OMC-510) / VeroE6/TMPRSS2 cells
# Conditions: plaque reduction assay
structure (smiles),measurement,value
CC[C@H](C)[C@H](NC(C)=O)C(=O)N[C@@H](CO)C(=O)NCC(=O)N[C@H](C(=O)N[C@@H](CC(N)=O)C(=O)N[C@@H](C)C(=O)N[C@@H](CO)C(=O)N[C@H](C(=O)N[C@H](C(=O)N[C@@H](CC(N)=O)C(=O)N[C@H](C(=O)N[C@@H](CCC(N)=O)C(=O)N[C@@H](CCC(=O)O)C(=O)N[C@@H](CCC(=O)O)C(=O)N[C@H](C(=O)N[C@@H](CCCCN)C(=O)N[C@@H](CCCNC(=N)N)C(=O)N[C@@H](CC(C)C)C(=O)N[C@@H](CC(N)=O)C(=O)N[C@@H](CCC(=O)O)C(=O)N[C@H](C(=O)N[C@@H](C)C(=O)N[C@@H](CCCCN)C(=O)N[C@@H](CCCCN)C(=O)N[C@@H](CC(C)C)C(=O)N[C@@H](CC(N)=O)C(=O)N[C@@H](CCC(=O)O)C(=O)N[C@@H](CO)C(=O)N[C@@H](CC(C)C)C(=O)N[C@H](C(=O)N[C@@H](CC(=O)O)C(=O)N[C@@H](CC(C)C)C(=O)N[C@@H](CCC(N)=O)C(=O)N[C@@H](CCC(=O)O)C(N)=O)[C@@H](C)CC)C(C)C)[C@@H](C)CC)[C@@H](C)CC)C(C)C)C(C)C)[C@@H](C)CC [Peptide 3a],times higher antiviral activity than peptide 1a,~4 times
same,times higher antiviral activity than peptide 2a,approximately 10 times
